# Activity calls are given as the source filed them. For most assays here, no stated cut-off is given here; in the data, actives have a measured EC50 and inactives only a lower limit.
# Key:
# [1] = target: Luciferin 4-monooxygenase (Photinus pyralis, UniProt P08659); assay: firefly luciferase enzyme inhibitors, dose response, biochemical, luminescence (AID 1891)
# [2] = Luminescence Cell-Based Dose Confirmation HTS to Identify Inhibitors of Platelet Dense Granule Release. [Related pubchem assays: 1663 (Primary HTS), 1678 (Summary of Project)]; type: functional
# H9c2 = assay: cells; type: functional, cell-based; settings: Rattus norvegicus, H9c2, Myocardium;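 further: confirmatory concentration-response retest of ultra-high-throughput screening hits for modulation of myocardial damage; cell death induced by hydrogen peroxide oxidative stress; compound pretreatment for 60 min then peroxide exposure for 2 h; potency is for protecting the cells against peroxide damage rather than for killing them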
# Protein skinhead-1 = target: T1, Protein skinhead-1 (Caenorhabditis elegans, UniProt P34707); type: functional
# T1 sequence (P34707 whole entry): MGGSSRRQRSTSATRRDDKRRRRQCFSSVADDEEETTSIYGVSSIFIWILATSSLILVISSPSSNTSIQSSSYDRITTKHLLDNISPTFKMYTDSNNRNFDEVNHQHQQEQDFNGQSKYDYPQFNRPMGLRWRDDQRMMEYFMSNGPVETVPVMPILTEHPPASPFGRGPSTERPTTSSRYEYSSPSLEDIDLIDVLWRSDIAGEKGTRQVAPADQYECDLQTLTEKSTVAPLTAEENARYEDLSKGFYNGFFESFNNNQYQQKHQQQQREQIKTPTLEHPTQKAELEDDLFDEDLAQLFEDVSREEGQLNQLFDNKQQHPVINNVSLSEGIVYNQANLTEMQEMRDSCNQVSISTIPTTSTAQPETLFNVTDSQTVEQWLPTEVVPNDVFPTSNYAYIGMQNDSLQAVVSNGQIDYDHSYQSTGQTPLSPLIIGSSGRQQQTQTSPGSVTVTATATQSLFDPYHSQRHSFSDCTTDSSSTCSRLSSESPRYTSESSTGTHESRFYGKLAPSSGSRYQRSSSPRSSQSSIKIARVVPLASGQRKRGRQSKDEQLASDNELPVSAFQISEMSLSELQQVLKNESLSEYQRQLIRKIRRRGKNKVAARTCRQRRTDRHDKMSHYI
# [3] = target: FAD-linked sulfhydryl oxidase ALR (Homo sapiens, UniProt P55789); assay: inhibitors of human ALR sulfhydryl oxidase, dose response, biochemical, H2O2 detection, luminescence, cherry-pick (AID 493248)
# [4] = target: T2, Corticotropin-releasing factor receptor 2/Corticotropin-releasing factor-binding protein (Homo sapiens, UniProt P24387+Q13324); assay: activators of CRF receptor 2 with binding protein – uHTS hits, confirmation (AID 602473); type: functional; settings: read-out: EC50_Mean
# T2 sequence (Q13324 whole entry): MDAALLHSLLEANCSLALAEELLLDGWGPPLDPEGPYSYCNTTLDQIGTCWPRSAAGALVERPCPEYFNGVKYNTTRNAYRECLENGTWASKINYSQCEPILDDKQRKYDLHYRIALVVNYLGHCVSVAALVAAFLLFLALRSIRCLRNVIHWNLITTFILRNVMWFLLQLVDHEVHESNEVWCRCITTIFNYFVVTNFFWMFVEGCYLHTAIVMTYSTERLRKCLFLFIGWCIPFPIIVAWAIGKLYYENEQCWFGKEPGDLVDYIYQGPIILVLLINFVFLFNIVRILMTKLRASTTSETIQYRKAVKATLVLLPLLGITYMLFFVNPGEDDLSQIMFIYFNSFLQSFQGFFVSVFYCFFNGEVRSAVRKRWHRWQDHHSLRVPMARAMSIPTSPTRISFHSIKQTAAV
# T2 sequence (P24387 whole entry): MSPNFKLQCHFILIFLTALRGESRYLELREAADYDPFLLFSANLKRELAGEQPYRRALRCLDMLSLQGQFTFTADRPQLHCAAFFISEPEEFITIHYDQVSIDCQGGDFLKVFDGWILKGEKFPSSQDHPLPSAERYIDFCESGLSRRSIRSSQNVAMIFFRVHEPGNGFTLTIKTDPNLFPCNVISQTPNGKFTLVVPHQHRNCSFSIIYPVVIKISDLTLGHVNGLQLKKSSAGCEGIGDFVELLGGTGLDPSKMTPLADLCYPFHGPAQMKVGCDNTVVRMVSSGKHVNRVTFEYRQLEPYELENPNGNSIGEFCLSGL
# [5] = target: T2, Corticotropin-releasing factor receptor 2/Corticotropin-releasing factor-binding protein; assay: Dose Response confirmation of uHTS hits for small molecule antagonists of the CRF-binding protein and CRF-R2 receptor complex.; type: functional; settings: read-out: IC50_Mean
# BJ [6] = assay: cytotoxicity toward BJ-TERT-LT-ST fibroblasts, dose response, cell-based, RAS-independent, luminescence (AID 1935); type: functional; settings: Homo sapiens;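 further: BJ fibroblasts immortalized with TERT plus LT and ST oncogenes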
# [7] = cytotoxicity toward DRD oncogenic fibroblasts, dose response, cell-based, non-viral oncogenic, luminescence (AID 1934); type: functional; settings: Homo sapiens
# BJ [8] = assay: cells; type: functional, cell-based; settings: Homo sapiens
# BJ [9] = assay: cytotoxicity toward BJ-TERT fibroblasts, dose response, cell-based, RAS-independent, luminescence (AID 1933); type: functional; settings: Homo sapiens
# [10] = target: T3, Ubiquitin-conjugating enzyme E2 N (Homo sapiens, UniProt P61088); type: functional;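 further: Dose-response confirmation in a TR-FRET assay detecting UBC13-driven polyubiquitin chain formation, inhibition measured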
# T3 sequence (P61088 whole entry): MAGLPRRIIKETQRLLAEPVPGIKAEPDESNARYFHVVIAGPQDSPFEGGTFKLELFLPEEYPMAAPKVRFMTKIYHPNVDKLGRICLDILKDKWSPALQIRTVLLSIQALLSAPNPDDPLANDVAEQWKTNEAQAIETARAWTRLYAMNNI
# Cytochrome P450 2D6 = Cytochrome P450 2D6 (Homo sapiens, UniProt P10635);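 further: CYP2D6 member of a cytochrome P450 panel assay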
# [11] = inhibitors of firefly luciferase expression or activity, dose response, H4 neuroglioma cells, luminescence (AID 1990); type: functional, cell-based
# [12] = inhibitors of SNCA 5'UTR-driven reporter translation, confirmation, H4 neuroglioma cells, luminescence (AID 1988); type: functional, cell-based
# [13] = Luminescence Cell-Based Dose Response HTS to Identify Inhibitors of 5'UTR Stem-Loop Driven Prion Protein mRNA Translation in H4 Neuroglioblastoma Cells. [Related pubchem assays: 1827 (Project Summary), 1813 (Primary HTS)]; type: functional
# Streptococcus = assay: Group A Streptococcus viability loss, dose response, counter-screen for streptokinase expression inhibitor project, luminescence, BacTiterGlo (AID 1915); type: functional, organism-based;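 further: potency for reduction of bacterial viability or growth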
# Streptokinase A = target: T4, Streptokinase A (Streptococcus pyogenes serotype M1, UniProt P10520); assay: S. pyogenes streptokinase expression inhibitors, potency, dose response, plasminogen activation absorbance, OD405 (AID 1914); type: functional, Streptococcus pyogenes M1 GAS;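 further: secreted streptokinase activity via plasminogen activation per viability signal from cell pellet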
# T4 sequence (P10520 whole entry): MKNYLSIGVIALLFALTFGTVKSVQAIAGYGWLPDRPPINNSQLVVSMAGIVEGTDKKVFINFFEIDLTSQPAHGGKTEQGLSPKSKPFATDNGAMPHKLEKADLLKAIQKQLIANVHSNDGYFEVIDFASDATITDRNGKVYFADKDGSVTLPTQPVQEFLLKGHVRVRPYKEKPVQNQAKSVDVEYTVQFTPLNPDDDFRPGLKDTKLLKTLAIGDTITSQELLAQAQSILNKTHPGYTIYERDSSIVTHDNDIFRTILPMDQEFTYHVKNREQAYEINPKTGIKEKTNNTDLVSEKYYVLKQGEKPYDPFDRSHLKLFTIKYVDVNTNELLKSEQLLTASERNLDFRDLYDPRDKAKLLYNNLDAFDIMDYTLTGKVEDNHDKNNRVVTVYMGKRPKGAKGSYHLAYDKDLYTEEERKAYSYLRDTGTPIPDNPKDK
# [14] = tested on: Streptococcus sp. 'group A'; assay: growth inhibition of control SK(-) GAS strain, dose response, counter-screen for streptokinase expression inhibitor project, luminescence, kanamycin, BacTiterGlo, confirmation (AID 1900); type: functional, organism-based
# Paired box protein Pax-8 = Paired box protein Pax-8 (Homo sapiens, UniProt Q06710); assay: inhibitors of PAX8-driven TPO luciferase reporter, dose response, RMG-I cells, cherry-pick (AID 687027); type: functional, cell-based;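 further: luciferase reporter driven by Pax8 target thyroperoxidase promoter measured by SteadyGlo luminescence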
# [15] = target: Heat shock protein HSP 90-alpha (Homo sapiens, UniProt P07900); type: functional, organism-based
# Chain of FAD-linked sulfhydryl oxidase ALR (P55789 whole entry): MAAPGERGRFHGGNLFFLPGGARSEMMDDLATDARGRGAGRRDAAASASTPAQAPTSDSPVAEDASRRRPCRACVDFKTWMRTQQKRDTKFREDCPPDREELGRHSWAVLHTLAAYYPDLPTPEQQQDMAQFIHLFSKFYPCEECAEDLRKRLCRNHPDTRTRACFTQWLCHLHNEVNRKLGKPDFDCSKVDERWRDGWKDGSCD
# Chain of Luciferin 4-monooxygenase (P08659 whole entry): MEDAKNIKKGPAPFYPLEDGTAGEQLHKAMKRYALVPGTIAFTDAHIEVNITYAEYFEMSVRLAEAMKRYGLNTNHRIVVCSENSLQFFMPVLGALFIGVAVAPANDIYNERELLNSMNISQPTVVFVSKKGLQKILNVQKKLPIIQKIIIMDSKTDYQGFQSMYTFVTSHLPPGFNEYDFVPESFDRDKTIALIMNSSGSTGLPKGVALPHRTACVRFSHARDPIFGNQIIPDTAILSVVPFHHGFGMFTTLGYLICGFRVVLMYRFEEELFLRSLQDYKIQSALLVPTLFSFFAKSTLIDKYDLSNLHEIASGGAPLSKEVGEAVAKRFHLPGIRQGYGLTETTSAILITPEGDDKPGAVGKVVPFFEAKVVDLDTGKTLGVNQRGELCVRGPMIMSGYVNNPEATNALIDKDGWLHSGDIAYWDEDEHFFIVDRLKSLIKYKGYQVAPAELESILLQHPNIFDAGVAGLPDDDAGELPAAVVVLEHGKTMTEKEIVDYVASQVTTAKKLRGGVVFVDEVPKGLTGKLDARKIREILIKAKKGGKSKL
# Chain of Paired box protein Pax-8 (Q06710 whole entry): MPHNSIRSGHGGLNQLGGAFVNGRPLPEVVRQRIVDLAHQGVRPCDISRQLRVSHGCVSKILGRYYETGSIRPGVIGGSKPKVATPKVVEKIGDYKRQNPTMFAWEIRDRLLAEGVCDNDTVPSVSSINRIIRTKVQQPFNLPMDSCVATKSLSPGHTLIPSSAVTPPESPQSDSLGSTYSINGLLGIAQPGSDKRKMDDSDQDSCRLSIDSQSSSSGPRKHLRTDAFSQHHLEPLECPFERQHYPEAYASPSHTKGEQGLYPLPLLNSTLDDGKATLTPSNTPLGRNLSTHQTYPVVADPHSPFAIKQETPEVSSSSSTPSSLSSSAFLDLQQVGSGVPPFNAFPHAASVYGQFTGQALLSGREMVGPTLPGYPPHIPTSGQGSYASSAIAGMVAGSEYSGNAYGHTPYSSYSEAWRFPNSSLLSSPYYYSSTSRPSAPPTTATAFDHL
# Chain of Cytochrome P450 2D6 (P10635 whole entry): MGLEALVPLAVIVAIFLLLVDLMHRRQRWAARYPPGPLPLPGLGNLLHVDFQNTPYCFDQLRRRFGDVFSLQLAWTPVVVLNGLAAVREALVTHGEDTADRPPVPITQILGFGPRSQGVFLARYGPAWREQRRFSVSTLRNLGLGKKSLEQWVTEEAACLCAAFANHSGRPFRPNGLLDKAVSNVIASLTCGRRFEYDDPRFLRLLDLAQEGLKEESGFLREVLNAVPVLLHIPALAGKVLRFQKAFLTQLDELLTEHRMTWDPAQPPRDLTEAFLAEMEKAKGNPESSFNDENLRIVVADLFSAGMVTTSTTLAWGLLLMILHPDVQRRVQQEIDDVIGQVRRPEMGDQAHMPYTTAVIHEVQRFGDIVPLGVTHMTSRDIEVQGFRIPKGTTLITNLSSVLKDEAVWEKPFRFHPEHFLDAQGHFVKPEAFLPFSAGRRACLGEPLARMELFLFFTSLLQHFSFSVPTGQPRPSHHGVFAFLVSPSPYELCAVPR
compound,measurement,setting,value
Cn1cc(S(=O)(=O)N2CCOCC2)cc1C(=O)NCCc1ccccc1,EC50,[1],> 112 µM (not active)
same,EC50,[2],> 112 µM (not active)
Cc1cc(C)c(C)c(S(=O)(=O)N2CCN(C(=O)c3cc(O)nc4ccccc34)CC2)c1C,IC50,H9c2,> 79 µM (inactive)
CS(=O)(=O)N1CCC(Oc2ccccc2C(=O)N2CCN(CC3CC3)CC2)CC1,EC50,[1],> 112 µM (not active)
same,EC50,[2],> 112 µM (not active)
COc1ccccc1C(=O)Nc1ccc2c(c1)CCCN2C(=O)c1ccccc1,EC50,[1],0.712 µM (active)
same,EC50,[2],19.1 µM (active)
Fc1cc(Br)ccc1COc1ccc(-c2nnco2)cc1,IC50,Protein skinhead-1,> 100 µM (inactive)
COc1ccc(OC)c(Nc2nc(C3CC3)nc3c2nnn3Cc2ccccc2)c1,EC50,[1],> 112 µM (not active)
same,EC50,[2],> 112 µM (not active)
CCc1ccc(N2CC(C(=O)OCC(=O)c3c(N)n(CC(C)C)c(=O)n(C)c3=O)CC2=O)cc1 (stereo not given),EC50,[1],> 112 µM (not active)
same,EC50,[2],> 112 µM (not active)
CCCCn1nc(C(=O)Oc2ccc3c(C)cc(=O)oc3c2)c2ccccc2c1=O,IC50,H9c2,> 79 µM (inactive)
O=C(Cn1[nH]c(=O)c2ccccc2c1=O)OCC(=O)N1CCc2ccccc2C1,IC50,H9c2,28.5 µM (active)
O=C(c1ccco1)N1CCN=C1SCc1ccccc1Cl,AC50,[3],0.41 µM (active)
same,EC50,[4],> 53 µM (inactive)
same,IC50,[5],> 47.1 µM (inactive)
Cn1c(=O)c2c(nc(Br)n2Cc2ccc3ccccc3c2)n(C)c1=O,IC50,H9c2,13.7 µM (active)
CN(C)CCCSc1nc2ccccc2s1,AC50,[3],0.171 µM (active)
CCOc1nc(-c2ccncc2)nc2ccccc12,IC50,Protein skinhead-1,> 100 µM (inactive)
COc1ccc(C2C(C(=O)Nc3cc(OC)c(OC)c(OC)c3)c3ccccc3C(=O)N2C)cc1 (stereo not given),EC50,BJ [6],2.56 µM (inconclusive)
same,EC50,[7],2.62 µM (active)
same,EC50,BJ [8],104 µM (inconclusive)
same,EC50,BJ [9],2.43 µM (inconclusive)
CCC(C)N(C(=O)COC(=O)Cc1nnc(O)c2ccccc12)C1CCS(=O)(=O)C1 (stereo not given),IC50,H9c2,> 79 µM (inactive)
CCc1cccc(NC(=O)CSC2=NS(=O)(=O)c3ccccc32)c1,IC50,[10],> 20 µM (inactive)
Brc1ccc(-c2cn3cccnc3n2)cc1,IC50,Protein skinhead-1,> 100 µM (inactive)
Cn1c(=O)[nH]c(=O)c2c1nc(N1CCCCCC1)n2CC(N)=O,EC50,[1],> 112 µM (not active)
same,EC50,[2],> 112 µM (not active)
Clc1ccc(-c2nnc(-c3cccnc3)o2)cc1,IC50,Protein skinhead-1,30.1 µM (active)
CC1CCCN(C(=O)c2ccncc2)C1 (stereo not given),IC50,Protein skinhead-1,> 100 µM (inactive)
COc1cccc2cc(C(C)N(CCCN3CCOCC3)C(=O)Nc3ccccc3)oc12 (stereo not given),EC50,[1],> 112 µM (not active)
same,EC50,[2],> 112 µM (not active)
Cc1ccc(S(=O)(=O)Nc2c(C(=O)O)[nH]c3ccccc23)c(C)c1,AC50,[3],12.7 µM (active)
CCN1CCN(C(=O)c2cc(-c3ccco3)nc3ccccc23)CC1,IC50,[10],> 20 µM (inactive)
Cc1ccccc1NC(=O)CSC1=C(C#N)C(c2ccsc2)CC(=O)N1 (stereo not given),IC50,Protein skinhead-1,> 100 µM (inactive)
Cc1ccc(S(=O)(=O)CCc2nnc(NC(=O)CCl)s2)cc1C,EC50,BJ [6],> 150 µM (not active)
same,EC50,[7],10.5 µM (active)
same,EC50,BJ [8],14.7 µM (active)
same,EC50,BJ [9],3.06 µM (active)
CCCc1nc2ccccc2c(=O)n1-c1ccc(OC)cc1,IC50,Protein skinhead-1,> 100 µM (inactive)
same,AC50,Cytochrome P450 2D6,14.1 µM (inconclusive)
COCCOC(=O)c1[nH]c2c(c1C)C(=O)CC(c1ccccc1)C2 (stereo not given),EC50,BJ [6],1.79 µM (active)
same,EC50,[11],8.73 µM (inconclusive)
same,EC50,[12],4.34 µM (active)
same,EC50,[7],2 µM (active)
same,EC50,[13],10.6 µM (active)
same,EC50,BJ [8],4.01 µM (active)
same,EC50,BJ [9],2.62 µM (inconclusive)
N#CCC(=O)Nc1ccc(C(=O)NCc2ccccn2)cc1,AC50,[3],2.41 µM (active)
Cc1ccc2sc(NNC(=O)c3ccc4c(c3)OCCO4)nc2c1C,IC50,H9c2,32.5 µM (inactive)
same,EC50,Streptococcus,18.3 µM (active)
same,EC50,Streptokinase A,> 150 µM (not active)
same,EC50,[14],13 µM (active)
CC(C)C[C@@H]1CN=C(N)N1C[C@@H]1CCCN1C[C@H](C)N1C[C@@H](Cc2ccccc2)N(CCc2ccc(Cl)c(Cl)c2)C1=N,IC50,[10],> 20 µM (inactive)
CCOC(=O)N1CCN(C(=O)Cc2ccc(-n3c(=S)[nH]c4ccccc4c3=O)cc2)CC1,IC50,[10],> 20 µM (inactive)
CC1=CC(C)CC(C)OC(=O)CC(c2ccc(O)cc2)NC(=O)C(Cc2c(Br)[nH]c3ccccc23)N(C)C(=O)C(C)NC(=O)C(C)C1 (stereo not given),AC50,Paired box protein Pax-8,< 0.26 µM (active)
same,AC50,[15],4.09 µM (active)
CC1CCCC(NC(=O)CSc2ncnc3ccccc23)C1C (stereo not given),IC50,[10],> 20 µM (inactive)
CC(=O)Nc1cc(-c2cccc(NS(C)(=O)=O)c2)cn2c(-c3cccc(C(C)=O)c3)cnc12,IC50,H9c2,12.8 µM (active)
Cn1ncc(Cl)c1C(=O)N/N=C/c1ccccn1,IC50,H9c2,71.6 µM (inactive)
COc1cccc(/C=N/Nc2ncnc3scc(-c4ccccc4)c23)c1OC,IC50,H9c2,> 79 µM (inactive)
C[C@@H]1CCCCO[C@@H](CN(C)Cc2ccc(Cl)c(Cl)c2)[C@H](C)CN([C@@H](C)CO)C(=O)c2cc(NC(=O)Cc3ccccc3)ccc2O1,AC50,Paired box protein Pax-8,4.54 µM (active)
CCNc1nc(Cl)nc(NC(C)C)n1 [ATRAZINE],EC50,[1],> 112 µM (not active)
same,EC50,[2],> 112 µM (not active)
